Measurements: US11951171B2, “Polypeptide EXP and its drug delivery system as well as extracellular vesicle extraction” (TIANJIN MEDICAL UNIVERSITY, priority 2019, dated 2024)

Tested on: exosomes in serum
Assay: Capture of serum exosomes with His-tagged peptide coated nickel beads
From the text: (A) Nano sight was used to detect the particle size of exosomes in serum captured by CP05 and EXP. It's shown by the results that the particle size of exosomes captured by EXP was about 50 nm, whose homogeneity was higher than that of exosomes recovered by ultra separation. […] It's shown by the results that exosomes captured by EXP has typical bi-layer structure, and the size of exosomes captured by EXP was smaller than that of exosomes recovered by ultrafiltration.(D) Western blot was used to detect the marker protein capturing exosome.
Experimental example 6: Characterization and functional validation of exosome captured from serum by EXP. • (1) His-tagged EXP and CP05 (100 μg) were respectively mixed with […] beads in 200 μl binding solution at 4° C. for 1 h under rotation. • (2) 1 ml pre-centrifuged serum was added to His-EXP and His-CP05 coated nickel beads (centrifuged at 4400 g for 20 min, followed by 13000 g for 5 min), and then incubated at 4° C. for 30 min; • (3) The serum was discarded and the nonspecific binding was washed with the washing solution for 3 times, 10 min each time. • (4) […] was used to recover extracellular vesicles.
6.1 Measurement of the size of captured exosomes. • (1) […] of exosomes recovered from elution were diluted into 1 ml of PBS. • (2) Nanosight was used to detect the size distribution of captured exosomes. […]

Q: Which results are given for CRHKMWTVKSRL (EXP)?
A: capture efficiency of exosomes in serum (FIG. 6F): 93.5%; extraction rate of serum exosomes compared with CP05 (extraction of serum exosomes): about 2 times
